In US8927717B1, “Thiochromeno[2,3-c]quinolin-12-one derivatives, preparation method and application thereof” (National Defense Medical Center, priority 2014, dated 2015):

Assays:
[1] = test system: DU-145; format: cell-based
[2] = test system: HOP-92; format: cell-based
[3] = test system: SN12C; format: cell-based
[4] = test system: CAKI-1; format: cell-based
[5] = test system: CCRF-CEM; format: cell-based
[6] = test system: SNB-75; format: cell-based
[7] = test system: HCC-2998; format: cell-based
[8] = test system: HS 578T; format: cell-based
[9] = test system: IGROV1; format: cell-based
[10] = test system: SF-295; format: cell-based
[11] = test system: BT-549; format: cell-based
[12] = test system: SK-MEL-2; format: cell-based
[13] = test system: SF-539; format: cell-based
[14] = test system: A549/ATCC; format: cell-based
[15] = test system: UACC-257; format: cell-based
[16] = test system: HCT-15; format: cell-based
[17] = test system: OVCAR-5; format: cell-based
[18] = test system: UO-31; format: cell-based
[19] = test system: OVCAR-4; format: cell-based
[20] = test system: OVCAR-3; format: cell-based
[21] = target: T1, TOP I (Topoisomerase I) (Homo sapiens, UniProt P11387); test: TOP I mediated supercoiled DNA relaxation assay; format: biochemical; conditions: primary assay at 25 and/or 50 μM
T1 construct: purchased TopoGEN TG2005H
T1 sequence (P11387 1-765): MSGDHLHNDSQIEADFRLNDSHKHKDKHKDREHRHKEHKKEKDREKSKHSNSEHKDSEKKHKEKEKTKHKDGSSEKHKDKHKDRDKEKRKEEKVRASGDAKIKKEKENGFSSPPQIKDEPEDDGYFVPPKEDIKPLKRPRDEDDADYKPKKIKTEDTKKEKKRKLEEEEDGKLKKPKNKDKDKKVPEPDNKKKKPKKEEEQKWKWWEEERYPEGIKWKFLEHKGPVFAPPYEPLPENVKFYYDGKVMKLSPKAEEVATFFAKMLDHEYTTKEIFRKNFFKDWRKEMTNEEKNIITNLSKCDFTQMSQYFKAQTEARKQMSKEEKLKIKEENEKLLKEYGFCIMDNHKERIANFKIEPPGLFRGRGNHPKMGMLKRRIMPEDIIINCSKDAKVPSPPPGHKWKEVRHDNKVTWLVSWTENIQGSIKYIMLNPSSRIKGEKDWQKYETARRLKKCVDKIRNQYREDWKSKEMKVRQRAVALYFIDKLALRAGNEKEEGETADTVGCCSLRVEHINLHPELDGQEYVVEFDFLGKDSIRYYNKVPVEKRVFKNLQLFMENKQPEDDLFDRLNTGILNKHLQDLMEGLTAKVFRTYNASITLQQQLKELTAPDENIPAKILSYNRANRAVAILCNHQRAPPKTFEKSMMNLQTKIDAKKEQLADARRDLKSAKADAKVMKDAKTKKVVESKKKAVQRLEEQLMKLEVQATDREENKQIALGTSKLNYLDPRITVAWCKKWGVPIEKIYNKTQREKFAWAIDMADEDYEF
Protocol: According to the cell cytotoxicity, compounds 5, 7, 8, 16, 19, N2, N7, N8, N9, N14-N19, and N25 were also selected for primary TOP I and II activities assays at 25 and/or 50 μM (FIG. 2-4).

[22] = target: T2, TOP II (Topoisomerase II) (Homo sapiens, UniProt P11388); test: TOP II-catalyzed relaxation of plasmid DNA assay; format: biochemical
T2 construct: purchased TopoGEN TG-2000H-1
T2 sequence (P11388 whole entry): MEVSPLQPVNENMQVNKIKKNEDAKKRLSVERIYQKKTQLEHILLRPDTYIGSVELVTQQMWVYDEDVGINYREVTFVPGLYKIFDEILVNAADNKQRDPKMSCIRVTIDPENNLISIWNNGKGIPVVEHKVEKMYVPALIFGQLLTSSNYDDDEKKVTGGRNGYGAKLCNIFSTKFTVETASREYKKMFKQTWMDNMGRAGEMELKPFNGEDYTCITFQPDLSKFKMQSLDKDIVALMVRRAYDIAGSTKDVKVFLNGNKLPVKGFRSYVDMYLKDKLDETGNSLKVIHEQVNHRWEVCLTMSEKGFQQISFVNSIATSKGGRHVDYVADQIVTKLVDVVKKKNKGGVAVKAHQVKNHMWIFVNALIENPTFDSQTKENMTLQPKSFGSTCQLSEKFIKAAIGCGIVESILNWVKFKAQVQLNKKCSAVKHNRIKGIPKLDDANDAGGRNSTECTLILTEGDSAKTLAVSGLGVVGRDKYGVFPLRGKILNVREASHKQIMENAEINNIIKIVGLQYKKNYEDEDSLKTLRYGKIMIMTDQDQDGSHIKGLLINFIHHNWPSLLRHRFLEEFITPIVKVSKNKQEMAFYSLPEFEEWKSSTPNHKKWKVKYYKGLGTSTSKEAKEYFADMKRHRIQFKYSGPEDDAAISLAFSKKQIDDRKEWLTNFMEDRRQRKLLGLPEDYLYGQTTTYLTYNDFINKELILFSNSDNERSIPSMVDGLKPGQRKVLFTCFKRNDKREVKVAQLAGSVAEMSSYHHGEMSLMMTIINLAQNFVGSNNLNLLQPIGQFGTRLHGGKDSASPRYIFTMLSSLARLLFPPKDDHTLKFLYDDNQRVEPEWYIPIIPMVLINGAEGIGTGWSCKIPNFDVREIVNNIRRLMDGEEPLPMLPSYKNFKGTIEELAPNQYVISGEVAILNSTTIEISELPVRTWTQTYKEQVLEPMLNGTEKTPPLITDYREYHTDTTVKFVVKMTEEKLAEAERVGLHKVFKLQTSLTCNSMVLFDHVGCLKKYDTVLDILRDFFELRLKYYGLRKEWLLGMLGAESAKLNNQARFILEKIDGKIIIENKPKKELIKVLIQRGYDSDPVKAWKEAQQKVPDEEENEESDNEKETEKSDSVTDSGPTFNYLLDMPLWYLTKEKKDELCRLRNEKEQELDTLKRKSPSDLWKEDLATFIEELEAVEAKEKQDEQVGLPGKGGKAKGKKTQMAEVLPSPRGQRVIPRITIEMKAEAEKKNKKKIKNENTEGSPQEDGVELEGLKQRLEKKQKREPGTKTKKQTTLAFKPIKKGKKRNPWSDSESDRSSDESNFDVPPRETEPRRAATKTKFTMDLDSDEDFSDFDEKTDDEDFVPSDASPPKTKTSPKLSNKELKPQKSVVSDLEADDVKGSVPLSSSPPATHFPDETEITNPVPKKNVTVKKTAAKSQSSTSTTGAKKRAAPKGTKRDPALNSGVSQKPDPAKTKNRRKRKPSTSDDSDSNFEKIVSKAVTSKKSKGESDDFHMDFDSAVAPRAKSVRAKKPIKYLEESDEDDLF
Protocol: We also performed TOP II-catalyzed relaxation of plasmid DNA assays (FIG. 5-7) to evaluate if compounds could inhibit TOP II. […] The IC50 value of compounds 7, N7, N8, N14, N15, N18, and N19 were about 10, 10, 1, 10, 5, 1, and 1 μM, respectively (detect by TopoGEN TG2005H, TG-2000H-1).

[23] = target: T1, TOP I (Topoisomerase I); test: TOP I mediated supercoiled DNA relaxation assay; format: biochemical; conditions: five different concentrations; TopoGEN TG2005H, TG-2000H-1
[24] = Non-small cell lung cancer, 10^−5 molar, 48 hours, SRB
[25] = Renal cancer, 10^−5 molar, 48 hours, SRB
[26] = CNS cancer, 10^−5 molar, 48 hours, SRB
[27] = Colon cancer, 10^−5 molar, 48 hours, SRB
[28] = Breast cancer, 10^−5 molar, 48 hours, SRB
[29] = Ovarian cancer, 10^−5 molar, 48 hours, SRB
[30] = Melanoma, 10^−5 molar, 48 hours, SRB

O=c1c2cc(Cl)ccc2sc2c(NCCO)nc3ccccc3c12 [Compound N9, 10-Chloro-6-(2-ethanolamino)-12H-thiochromeno[2,3-c]quinolin-12-one]
Growth percent DU-145 ([1]; Prostate cancer, 10^−5 molar, 48 hours, SRB): 102.77%
Growth percent HOP-92 [2, 24]: 63.17%
Growth percent SN12C [3, 25]: 92.52%
Growth percent CAKI-1 [4, 25]: 89.29%
Growth percent CCRF-CEM ([5]; Leukemia, 10^−5 molar, 48 hours, SRB): 81.07%
Growth percent SNB-75 [6, 26]: 90.05%
Growth percent HCC-2998 [7, 27]: 101.55%
Growth percent HS 578T [8, 28]: 83.24%
Growth percent IGROV1 [9, 29]: 88.51%
Growth percent SF-295 [10, 26]: 92.50%
Growth percent BT-549 [11, 28]: 131.62%
Growth percent SK-MEL-2 [12, 30]: 86.80%
Growth percent SF-539 [13, 26]: 90.56%
Growth percent A549/ATCC [14, 24]: 80.72%
Growth percent UACC-257 [15, 30]: 89.33%
Growth percent HCT-15 [16, 27]: 78.61%
Growth percent OVCAR-5 [17, 29]: 101.56%
Growth percent UO-31 [18, 25]: 51.97%
Growth percent OVCAR-4 [19, 29]: 102.67%
Growth percent OVCAR-3 [20, 29]: 103.35%

CN(C)CCCNc1nc2ccccc2c2c(=O)c3cc(Cl)ccc3sc12 [Compound N17, 10-Chloro-6-((3-(dimethylamino)propyl)amino)-12H-thiochromeno[2,3-c]quinolin-12-one]
Growth percent ([1]; DU-145, 10^−5 molar): 97.29%
Growth percent ([2]; HOP-92, 10^−5 molar): 40.76%
melting point: 194 to 195 °C
Growth percent ([3]; SN12C, 10^−5 molar): 83.63%
Growth percent ([4]; CAKI-1, 10^−5 molar): 84.31%
Growth percent ([5]; CCRF-CEM, 10^−5 molar): 69.06%
Growth percent ([6]; SNB-75, 10^−5 molar): 60.99%
Growth percent ([7]; HCC-2998, 10^−5 molar): 108.36%
Growth percent ([8]; HS 578T, 10^−5 molar): 87.67%
Growth percent ([9]; IGROV1, 10^−5 molar): 87.27%
Growth percent ([10]; SF-295, 10^−5 molar): 95.14%
Growth percent ([11]; BT-549, 10^−5 molar): 99.81%
inhibitory effect in TOP I activity assay compared with CPT [21]: more potent inhibitory effects than CPT
Growth percent ([12]; SK-Mel-2, 10^−5 molar): 106.47%
Growth percent ([13]; SF-539, 10^−5 molar): 87.85%
Growth percent ([14]; A549/ATCC, 10^−5 molar): 81.19%
Growth percent ([15]; UACC-257, 10^−5 molar): 107.40%
Growth percent ([16]; HCT-15, 10^−5 molar): 80.92%
Growth percent ([17]; OVCAR-5, 10^−5 molar): 106.26%
Growth percent ([18]; UO-31, 10^−5 molar): 72.62%
Growth percent ([19]; OVCAR-4, 10^−5 molar): 94.63%

O=c1c2cc(Cl)ccc2sc2c(NCCCNCCO)nc3ccccc3c12 [Compound N19, 10-Chloro-6-((3-((2-hydroxyethyl)amino)propyl)amino)-12H-thiochromeno[2,3-c]quinolin-12-one]
IC50 ([22]; five different concentrations, TopoGEN TG2005H, TG-2000H-1, read-out: IC50 value, TOP II mediated supercoiled DNA relaxation): ~1000 nM
inhibitory effect in TOP II relaxation assay compared with VP-16 ([22]; primary assay at 25 and/or 50 μM): more potent inhibitory effects than the positive agent VP-16
Growth percent ([1]; DU-145, 10^−5 molar): −71.03%
TGI ([1]; DU-145, five dose): 3310 nM
GI50 ([1]; Homo sapiens, DU-145, five dose): 1760 nM
CC50 ([1]; Homo sapiens, DU-145, five dose, read-out: LC50 (the source's name)): 6250 nM
Growth percent ([2]; HOP-92, 10^−5 molar): 23.01%
TGI ([2]; HOP-92, five dose): 4580 nM
GI50 ([2]; Homo sapiens, HOP-92, five dose): 1230 nM
GI50 ([3]; Homo sapiens, SN12C, five dose): 1700 nM
CC50 ([3]; Homo sapiens, SN12C, five dose, read-out: LC50 (the source's name)): 6800 nM
Growth percent ([3]; SN12C, 10^−5 molar): 78.75%
TGI ([3]; SN12C, five dose): 3390 nM
TGI ([4]; CAKI-1, five dose): 2690 nM
GI50 ([4]; Homo sapiens, CAKI-1, five dose): 1330 nM
CC50 ([4]; Homo sapiens, CAKI-1, five dose, read-out: LC50 (the source's name)): 5450 nM
Growth percent ([5]; CCRF-CEM, 10^−5 molar): −54.78%
TGI ([5]; CCRF-CEM, five dose): 3800 nM
GI50 ([5]; Homo sapiens, CCRF-CEM, five dose): 1830 nM
GI50 ([6]; Homo sapiens, SNB-75, five dose): 1280 nM
Growth percent ([6]; SNB-75, 10^−5 molar): 23.66%
TGI ([6]; SNB-75, five dose): 2560 nM
Growth percent ([7]; HCC-2998, 10^−5 molar): −74.47%
TGI ([7]; HCC-2998, five dose): 3420 nM
GI50 ([7]; Homo sapiens, HCC-2998, five dose): 1580 nM
Growth percent ([8]; HS 578T, 10^−5 molar): 64.69%
TGI ([8]; HS 578T, five dose): 3530 nM
GI50 ([8]; Homo sapiens, HS 578T, five dose): 1290 nM
CC50 ([8]; Homo sapiens, HS 578T, five dose, read-out: LC50 (the source's name)): 9640 nM
GI50 ([9]; Homo sapiens, IGROV-1, IGROV1, five dose): 1660 nM
Growth percent ([9]; IGROV1, 10^−5 molar): −43.25%
TGI ([9]; IGROV1, five dose): 3600 nM
GI50 ([10]; Homo sapiens, SF-295, five dose): 1730 nM
Growth percent ([10]; SF-295, 10^−5 molar): −93.00%
TGI ([10]; SF-295, five dose): 3330 nM
Growth percent ([11]; BT-549, 10^−5 molar): 98.48%
TGI ([11]; BT-549, five dose): 3150 nM
GI50 ([11]; Homo sapiens, BT-549, five dose): 1670 nM
IC50 [23]: ~5000 nM
GI50 ([12]; Homo sapiens, SK-Mel-2, five dose): 2050 nM
Growth percent ([12]; SK-Mel-2, 10^−5 molar): 53.64%
TGI ([12]; SK-Mel-2, five dose): 3770 nM
GI50 ([13]; Homo sapiens, SF-539, five dose): 1700 nM
Growth percent ([13]; SF-539, 10^−5 molar): −47.59%
TGI ([13]; SF-539, five dose): 3220 nM
Growth percent ([14]; A549/ATCC, 10^−5 molar): −64.45%
TGI ([14]; A549/ATCC, five dose): 3300 nM
GI50 ([14]; Homo sapiens, A549/ATCC, five dose): 1760 nM
GI50 ([15]; Homo sapiens, UACC-257, five dose): 1860 nM
CC50 ([15]; Homo sapiens, UACC-257, five dose, read-out: LC50 (the source's name)): 6330 nM
Growth percent ([15]; UACC-257, 10^−5 molar): 45.70%
TGI ([15]; UACC-257, five dose): 3440 nM
Growth percent ([16]; HCT-15, 10^−5 molar): −76.47%
TGI ([16]; HCT-15, five dose): 3250 nM
GI50 ([16]; Homo sapiens, HCT-15, five dose): 1610 nM
GI50 ([17]; Homo sapiens, OVCAR-5, five dose): 1630 nM
CC50 ([17]; Homo sapiens, OVCAR-5, five dose, read-out: LC50 (the source's name)): 7530 nM
Growth percent ([17]; OVCAR-5, 10^−5 molar): −65.05%
TGI ([17]; OVCAR-5, five dose): 3500 nM
GI50 ([18]; Homo sapiens, UO-31, five dose): 1360 nM
CC50 ([18]; Homo sapiens, UO-31, five dose, read-out: LC50 (the source's name)): 6350 nM
Growth percent ([18]; UO-31, 10^−5 molar): 24.54%
TGI ([18]; UO-31, five dose): 2940 nM
GI50 ([19]; Homo sapiens, OVCAR-4, five dose): 1600 nM
Growth percent ([19]; OVCAR-4, 10^−5 molar): 12.32%
TGI ([19]; OVCAR-4, five dose): 3230 nM
GI50 ([20]; Homo sapiens, OVCAR-3, five dose): 1790 nM
TGI ([20]; OVCAR-3, five dose): 3510 nM
